Laboratory results: PubChem BioAssay (NCI)
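Where inhibition never reached the appropriate level, the endpoint shown equals the highest concentration tested. Otherwise, values were interpolated linearly from a five-concentration, 48-hour dose response in 96-well plates. TGI: concentration producing complete growth inhibition.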

Tested on: SN12K1 renal
Experiment: NCI anticancer screen, dose series, 48 h

**Q.** With COc1cc(C2c3cc4c(cc3[C@@H](Nc3cccc(O)c3)C3COC(=O)[C@H]23)OCO4)cc(OC)c1O (stereo partly specified) as the compound, how does the TGI read?
**A.** Its TGI is 7.81 µM.
